Laboratory results as given in US4992535A, “Methods of making novel R and S diastereomers of N^6 -[(2-hydroxypropyl)aryl]adenosines” (G. D. Searle & Co., priority 1988, dated 1991).
Entries after “also recorded” stand apart in the source; their conditions may differ.

Legend:
[1] = test system: spontaneously hypertensive rats (SHR); assay: Mean arterial pressure and heart rate in conscious spontaneously hypertensive rats (IV and intragastric); format: in vivo, rat; conditions: for Maximum decrease at 20 mg/kg ig, HR / Maximum decrease at 20 mg/kg ig, MAP: day 2 of oral administration; for ED (100 b/min decrease) / ED (40 mmHg decrease): Rattus norvegicus, IV; for ED (100 b/min decrease): read-out: IV dose to decrease HR by 100 b/min; for ED (40 mmHg decrease): read-out: IV dose to decrease MAP by 40 mmHg
Protocol: The effects of compounds I and II were tested intravenously or intragastrically in conscious spontaneously hypertensive rats (SHR). The rats were anesthetized with ether and the left carotid artery and right jugular vein were cannulated with polyethylene tubing. The rats were allowed three to five hours recovery from anesthesia for the I.V. studies and 12 to 18 hours for the oral studies. Mean arterial pressure (MAP, in mm/Hg) and heart rate (HR, beats/min.) were measured from the artery; intravenous administration of compounds was performed by injection into the vein. Oral administration was performed by gastric intubation. Compounds were dissolved in DMSO for I.V. studies and injected in volumes of […] or less (N=5 per compound). Doses were 3 to 1,000 mg/kg. Compounds were dissolved in polyethylene glycol for oral administration and injected in volumes of 1 ml/kg at dose of 20 mg/kg/day for three days (N=3 to 6 per compound).
The resting MAP and HR for the SHR ranged between 160-200 mm Hg and 330/350 b/min., respectively.

[2] = biological target: T1, adenosine A1 receptor (Rattus norvegicus, UniProt P25099); assay: Adenosine A1 receptor binding, inhibition of HPIA binding to crude plasma membranes
T1 construct: Crude plasma membranes were prepared; from tissue; host or cells: crude plasma membranes
T1 sequence (P25099 1-326): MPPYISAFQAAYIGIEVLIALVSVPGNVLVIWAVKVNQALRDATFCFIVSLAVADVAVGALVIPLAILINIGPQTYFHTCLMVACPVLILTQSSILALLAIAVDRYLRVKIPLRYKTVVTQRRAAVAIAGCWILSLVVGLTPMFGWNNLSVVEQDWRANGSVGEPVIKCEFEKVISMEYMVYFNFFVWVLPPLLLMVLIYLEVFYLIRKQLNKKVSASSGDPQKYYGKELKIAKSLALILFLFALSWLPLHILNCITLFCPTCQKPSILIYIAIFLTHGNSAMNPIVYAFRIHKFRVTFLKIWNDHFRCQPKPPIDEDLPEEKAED
Protocol: The binding potency of compound I, II and III to the adenosine Al receptor was measured according to the method of Schwabe, U. et al., Naunyn Schmeid. Arch. Pharmacol. 321:84, 1982. Crude plasma membranes were prepared and varying concentrations of compounds I, II or III were added to the membrane preparation in the presence of ^125 -N-p hydroxyphenyl isopropyladenosine (HPIA). The affinity of the compounds for the adenosine Al receptor was estimated from the concentrations necessary to inhibit the binding of HPIA by 50% (IC50).

[3] = test system: PRA in Sprague Dawley rats with renal arteries ligated; assay: Plasma renin activity (PRA) in the bilateral renal artery ligated rat; format: in vivo; conditions: 1 mg/kg IV; for prevention of PRA increase, in words: 30 and 60 minutes; for Change in PRA at 30 minutes: 30 minutes after dosing; for Change in PRA at 60 minutes: 60 minutes after dosing
Protocol: Adenosine Al receptor stimulation will inhibit the release of renin from the kidney. A stimulus for the release of renin is renal ischemia. The ability of the compounds of the present invention to prevent an increase in PRA following renal ischemia was tested in rats with both renal arteries ligated. Sprague Dawley rats were anesthetized with ether and the renal arteries were ligated. Three to five hours after anesthesia, arterial blood was sampled and compounds I, II or III were administered in polyethylene glycol at 1 mg/kg I.V. At 30 and 60 minutes after administration, arterial blood was sampled for PRA measurement by the method of Sealy, J. E. et al., Cardiovasc. Med. 2:1079, 1977.

[4] = test system: mice; assay: Ataxia, rotating rod, in mice; format: in vivo, mouse; conditions: for Percent ataxic, 0.5 hour / Percent ataxic, 3 hour: 54 ± 12 mg/kg ip (pooled 32, 56, 75 mg/kg); for ataxia / motor toxicity compared to compound I, in words: ip, 0.5 or 3 hours
Protocol: (§1) Adenosine analogs tend to produce sedation and central nervous system depression which have prevented their therapeutic utility. The compounds of the invention, at doses which lower arterial pressure in the SHR, show no evidence of CNS depression. The ataxia produced by compounds of the present invention was measured in mice by injecting the compounds IP at doses of 32, 56, or 75 mg/kg in an aqueous suspension, n=7 per dose. The mice had previously been trained to remain on a rotating rod. After dosing, the percent of mice unable to remain on the rotating rod was determined. […] The mice were also observed at various time intervals for behavioral signs of toxicity.

[5] = test system: mice; assay: Behavioral signs of toxicity in mice; format: in vivo; design: key to Motor depression / Ptosis / Respiratory depression / Flaccidity / Loss of righting reflex: +: toxic symptom observed; +*: * = 2/7; +^#: ^# = 5/7; conditions: 75 mg/kg IP
Protocol: as §1

[6] = test system: adenosine A1 receptor in the granular juxtaglomerular cells of the kidney; conditions: Federation Proceedings 44:879 & 1643, 1985; cited from earlier work
[7] = test system: hypertensive models; conditions: Federation Proceedings 44:879 & 1643, 1985; cited from earlier work
[8] = test system: central nervous system; assay: CNS toxicity / CNS depression, general statements; format: in vivo; conditions: summary statement

Structure (SMILES) | Maximum decrease at 20 mg/kg ig, HR [1] [b/min] | Maximum decrease at 20 mg/kg ig, MAP [1] [mmHg] | ED (100 b/min decrease) [1] [mg/kg] | ED (40 mmHg decrease) [1] [mg/kg] | IC50 [2] [nM] | prevention of PRA increase, in words [3] | Change in PRA at 30 minutes [3] [ngAI/ml/hr] | Change in PRA at 60 minutes [3] [ngAI/ml/hr] | Percent ataxic, 0.5 hour [4] [%] | Percent ataxic, 3 hour [4] [%] | behavioral toxicity in words ([5]; 18-20 hours) | Flaccidity ([5]; 18-20 hr) | Motor depression ([5]; 18-20 hr) | Ptosis ([5]; 18-20 hr) | Motor depression ([5]; 0.5 hr) | Ptosis ([5]; 0.5 hr) | Respiratory depression ([5]; 0.5 hr) | Motor depression ([5]; 3 hr) | Ptosis ([5]; 3 hr) | Respiratory depression ([5]; 3 hr) | further results
OC[C@H]1O[C@@H](n2cnc3c(NCC(O)COc4cccc5ccccc45)ncnc32)[C@H](O)[C@@H]1O (mixture of isomers) [Compound I, N(6) [2 hydroxy-3-(1 naphthyloxy)propyl]-adenosine] | 214 ± 14 | 50 ± 13 | 0.037 ± 0.0013 | 0.052 ± 0.0013 | 1.2 | prevented to the same extent | -2.9 ± 5.0 | -9.4 ± 7.4 | 33 ± 10 | 95 ± 5 | still producing several of the toxic symptoms | +* | + | + | + | + | + | + | + | + | Respiratory depression ([5]; 18-20 hr): +; behavioral toxicity in words ([5]; 3 hours): also produced flaccidity and loss of writhing reflex; Flaccidity ([5]; 3 hr): +; Loss of righting reflex ([5]; 3 hr): +; binding to the adenosine A1 receptor, in words [6]: binds to the adenosine Al receptor; inhibition of renin release into the plasma, in words [6]: inhibit release of renin into the plasma; arterial blood pressure and heart rate, in words [7]: reducing arterial blood pressure and heart rate
OC[C@H]1O[C@@H](n2cnc3c(NC[C@@H](O)COc4cccc5ccccc45)ncnc32)[C@H](O)[C@@H]1O [II, N-[2R-hydroxy-3-(1-naphthalenyloxy)propyl]-adenosine] | 202 ± 24 | 62 ± 7 | 0.036 ± 0.0012 | 0.047 ± 0.0012 | 1.2 | prevented to the same extent | -11.7 ± 3.5 | -13.8 ± 4.9 | 14 ± 8 | 48 ± 21 | still producing several of the toxic symptoms | + | + | + | + | + | + | + | + | + | ataxia / motor toxicity compared to compound I, in words [4]: less motor toxicity than compound I; also recorded: less toxic than compound I with regard to ataxia; also recorded: less ataxia at 0.5 or 3 hours as compared to compound I; Respiratory depression ([5]; 18-20 hr): +; behavioral toxicity in words ([5]; 24 hours): still producing toxic symptoms; Motor depression ([5]; 24 hr): +^#; Ptosis ([5]; 24 hr): +^#; Respiratory depression ([5]; 24 hr): ^#; central nervous system toxicity, comparison in words [8]: less central nervous system toxicity than the S diastereomer; also recorded: less central nervous system toxicity than the racemic mixture
OC[C@H]1O[C@@H](n2cnc3c(NC[C@H](O)COc4cccc5ccccc45)ncnc32)[C@H](O)[C@@H]1O [III, N-[2S-hydroxy-3[1-naphthalenyloxy)propyl]-adenosine] | 177 ± 19 | 50 ± 14 | 0.031 ± 0.0014 | 0.033 ± 0.0012 | 1.2 | prevented to the same extent | -6.6 ± 4.0 | -6.3 ± 3.9 | 14 ± 0 | 57 ± 8 | no toxicity was observed | – | – | – | + | + | + | + | + | + | ataxia / motor toxicity compared to compound I, in words [4]: less motor toxicity than compound I; also recorded: less ataxia at 0.5 or 3 hours as compared to compound I; behavioral toxicity, overall comparison in words ([5]; mice): substantially less toxic than compounds I and II; also recorded: less CNS toxic than compound II with regard to behavioral toxicity
